Test results: ChEMBL document CHEMBL3390836, “Mannich- and LedererManasse-based analogues of the natural product S-(+)-curcuphenol as cancer proliferation and migration inhibitors” (Medchemcomm, 2012)
pIC50: −log10 of the molar value.

Experiments:
[1] = tested on: MDA-MB-468; experiment: Cytotoxicity against human MDA-MB-468 cells assessed as cell growth at 10 uM after 48 hrs by SRB assay relative to control; type: functional; conditions: MDA-MB-468, 48 h, read-out: Activity
[2] = Cytotoxicity against human Hs 578T cells assessed as cell growth at 10 uM after 48 hrs by SRB assay relative to control; type: functional; conditions: read-out: Activity
[3] = Cytotoxicity against human PC3 cells assessed as cell growth at 10 uM after 48 hrs by SRB assay relative to control; type: functional; conditions: PC-3, 48 h, read-out: Activity
[4] = tested on: MCF7; experiment: Cytotoxicity against human MCF7 cells assessed as cell growth at 10 uM after 48 hrs by SRB assay relative to control; type: functional; conditions: MCF7, 48 h, read-out: Activity
[5] = Cytotoxicity against human UO31 cells assessed as cell growth at 10 uM after 48 hrs by SRB assay relative to control; type: functional; conditions: UO-31, 48 h, read-out: Activity
[6] = tested on: SN12C; experiment: Cytotoxicity against human SN12C cells assessed as cell growth at 10 uM after 48 hrs by SRB assay relative to control; type: functional; conditions: read-out: Activity
[7] = tested on: RXF 393; experiment: Cytotoxicity against human RXF393 cells assessed as cell growth at 10 uM after 48 hrs by SRB assay relative to control; type: functional; conditions: RXF 393, 48 h, read-out: Activity
[8] = tested on: CAKI-1; experiment: Cytotoxicity against human Caki1 cells assessed as cell growth at 10 uM after 48 hrs by SRB assay relative to control; type: functional; conditions: CAKI-1, 48 h, read-out: Activity
[9] = tested on: 786-0; experiment: Cytotoxicity against human 786-0 cells assessed as cell growth at 10 uM after 48 hrs by SRB assay relative to control; type: functional; conditions: 786-0, 48 h, read-out: Activity
[10] = Cytotoxicity against human NCI-ADR-RES cells assessed as cell growth at 10 uM after 48 hrs by SRB assay relative to control; type: functional; conditions: read-out: Activity
[11] = tested on: MDA-MB-231; experiment: Cytotoxicity against human MDA-MB-231 cells assessed as growth inhibition after 24 hrs by MTT assay; type: cell-based; conditions: MDA-MB-231, 24 h
[12] = Cytotoxicity against human OVCAR4 cells assessed as cell growth at 10 uM after 48 hrs by SRB assay relative to control; type: functional; conditions: OVCAR-4, 48 h, read-out: Activity
[13] = tested on: IGROV-1; experiment: Cytotoxicity against human IGROV1 cells assessed as cell growth at 10 uM after 48 hrs by SRB assay relative to control; type: functional; conditions: IGROV-1, 48 h, read-out: Activity
[14] = Cytotoxicity against human UACC62 cells assessed as cell growth at 10 uM after 48 hrs by SRB assay relative to control; type: functional; conditions: UACC-62, 48 h, read-out: Activity
[15] = tested on: SK-MEL-5; experiment: Cytotoxicity against human SK-MEL-5 cells assessed as cell growth at 10 uM after 48 hrs by SRB assay relative to control; type: functional; conditions: SK-MEL-5, 48 h, read-out: Activity
[16] = tested on: SK-MEL-28; experiment: Cytotoxicity against human SK-MEL-28 cells assessed as cell growth at 10 uM after 48 hrs by SRB assay relative to control; type: functional; conditions: SK-MEL-28, 48 h, read-out: Activity
[17] = tested on: SK-MEL-2; experiment: Cytotoxicity against human SK-MEL-2 cells assessed as cell growth at 10 uM after 48 hrs by SRB assay relative to control; type: functional; conditions: SK-MEL-2, 48 h, read-out: Activity
[18] = tested on: MDA-MB-435; experiment: Cytotoxicity against human MDA-MB-435 cells assessed as cell growth at 10 uM after 48 hrs by SRB assay relative to control; type: functional; conditions: MDA-MB-435, 48 h, read-out: Activity
[19] = tested on: M14; experiment: Cytotoxicity against human M14 cells assessed as cell growth at 10 uM after 48 hrs by SRB assay relative to control; type: functional; conditions: M14, 48 h, read-out: Activity
[20] = tested on: U-251; experiment: Cytotoxicity against human U251 cells assessed as cell growth at 10 uM after 48 hrs by SRB assay relative to control; type: functional; conditions: U-251, 48 h, read-out: Activity
[21] = tested on: SF-539; experiment: Cytotoxicity against human SF539 cells assessed as cell growth at 10 uM after 48 hrs by SRB assay relative to control; type: functional; conditions: SF-539, 48 h, read-out: Activity
[22] = tested on: SNB-19; experiment: Cytotoxicity against human SNB19 cells assessed as cell growth at 10 uM after 48 hrs by SRB assay relative to control; type: functional; conditions: SNB-19, 48 h, read-out: Activity
[23] = tested on: SF-295; experiment: Cytotoxicity against human SF295 cells assessed as cell growth at 10 uM after 48 hrs by SRB assay relative to control; type: functional; conditions: SF-295, 48 h, read-out: Activity
[24] = tested on: KM12; experiment: Cytotoxicity against human KM12 cells assessed as cell growth at 10 uM after 48 hrs by SRB assay relative to control; type: functional; conditions: KM12, 48 h, read-out: Activity
[25] = tested on: SW-620; experiment: Cytotoxicity against human SW620 cells assessed as cell growth at 10 uM after 48 hrs by SRB assay relative to control; type: functional; conditions: SW-620, 48 h, read-out: Activity
[26] = tested on: HCC 2998; experiment: Cytotoxicity against human HCC2998 cells assessed as cell growth at 10 uM after 48 hrs by SRB assay relative to control; type: functional; conditions: HCC 2998, 48 h, read-out: Activity
[27] = tested on: NCI-H460; experiment: Cytotoxicity against human NCI-H460 cells assessed as cell growth at 10 uM after 48 hrs by SRB assay relative to control; type: functional; conditions: NCI-H460, 48 h, read-out: Activity
[28] = tested on: NCI-H23; experiment: Cytotoxicity against human NCI-H23 cells assessed as cell growth at 10 uM after 48 hrs by SRB assay relative to control; type: functional; conditions: NCI-H23, 48 h, read-out: Activity
[29] = tested on: NCI-H226; experiment: Cytotoxicity against human NCI-H226 cells assessed as cell growth at 10 uM after 48 hrs by SRB assay relative to control; type: functional; conditions: NCI-H226, 48 h, read-out: Activity
[30] = tested on: HOP-62; experiment: Cytotoxicity against human HOP62 cells assessed as cell growth at 10 uM after 48 hrs by SRB assay relative to control; type: functional; conditions: HOP-62, 48 h, read-out: Activity
[31] = Cytotoxicity against human EKVX cells assessed as cell growth at 10 uM after 48 hrs by SRB assay relative to control; type: functional; conditions: read-out: Activity
[32] = tested on: K562; experiment: Cytotoxicity against human K562 cells assessed as cell growth at 10 uM after 48 hrs by SRB assay relative to control; type: functional; conditions: K562, 48 h, read-out: Activity
[33] = tested on: CCRF-CEM; experiment: Cytotoxicity against human CCRF-CEM cells assessed as cell growth at 10 uM after 48 hrs by SRB assay relative to control; type: functional; conditions: read-out: Activity
[34] = tested on: MDA-MB-231; experiment: Growth inhibition of human MDA-MB-231 cells after 72 hrs by MTT assay; type: functional, cell-based; conditions: MDA-MB-231, 72 h
[35] = tested on: MCF7; experiment: Growth inhibition of human MCF7 cells after 72 hrs by MTT assay; type: functional, cell-based; conditions: MCF7, 72 h
[36] = tested on: MDA-MB-231; experiment: Antimigratory activity against human MDA-MB-231 cells after 24 hrs by wound-healing assay; type: functional, cell-based; conditions: MDA-MB-231, 24 h

Row | SMILES | growth at 10 µM [1] [%] | growth at 10 µM [2] [%] | growth at 10 µM [3] [%] | growth at 10 µM [4] [%] | growth at 10 µM [5] [%] | growth at 10 µM [6] [%] | growth at 10 µM [7] [%] | growth at 10 µM [8] [%] | growth at 10 µM [9] [%] | growth at 10 µM [10] [%] | pIC50 [11] | growth at 10 µM [12] [%] | growth at 10 µM [13] [%] | growth at 10 µM [14] [%] | growth at 10 µM [15] [%] | growth at 10 µM [16] [%] | growth at 10 µM [17] [%] | growth at 10 µM [18] [%] | growth at 10 µM [19] [%] | growth at 10 µM [20] [%] | further results
1 | CC(C)=CCC[C@H](C)c1ccc(C)cc1O | 95.7 | 114 | 80 | 97.8 | 83 | 105 | 103 | 107 | 79.9 | 99 | < 4.70 | 100 | 97.8 | 100 | 97.5 | 119 | 147 | 100 | 106 | 103 | growth at 10 µM [21]: 103%; growth at 10 µM [22]: 98.5%; growth at 10 µM [23]: 107%; growth at 10 µM [24]: 93.8%; growth at 10 µM [25]: 114%; growth at 10 µM [26]: 99.5%; growth at 10 µM [27]: 107%; growth at 10 µM [28]: 94.9%; growth at 10 µM [29]: 107%; growth at 10 µM [30]: 102%; growth at 10 µM [31]: 110%; growth at 10 µM [32]: 93%; growth at 10 µM [33]: 105%; pIC50 [34]: < 4.30; pIC50 [35]: < 4.70; pIC50 [36]: 4.43
2 | CC(C)=CCC[C@H](C)c1ccc(C)c(CNCCO)c1O | 81.7 | 83.1 | 88.1 | 105 | 54.7 | 91.5 | 79.2 | 74.6 | 83.7 | 88.7 | < 4.70 | 108 | 94.9 | 92.7 | 92.5 | 112 | 93 | 95.8 | 101 | 87.2 | growth at 10 µM [21]: 96.5%; growth at 10 µM [22]: 88.1%; growth at 10 µM [23]: 105%; growth at 10 µM [24]: 98.7%; growth at 10 µM [25]: 100%; growth at 10 µM [26]: 76.9%; growth at 10 µM [27]: 102%; growth at 10 µM [28]: 89.1%; growth at 10 µM [29]: 90%; growth at 10 µM [30]: 81%; growth at 10 µM [31]: 89%; growth at 10 µM [32]: 76.8%; growth at 10 µM [33]: 102%; pIC50 [34]: 4.84; pIC50 [35]: < 4.70; pIC50 [36]: < 4.70
3 | COc1ccc(CCNCc2c(C)ccc([C@@H](C)CCC=C(C)C)c2O)cc1OC | 67.9 | 89.6 | 71 | 85.1 | 42.6 | 87.1 | 80.8 | 58.4 | 80.4 | 83.4 | < 4.70 | 71 | 68.8 | 84.9 | 78 | 104 | 99.9 | 97.8 | 91 | 76.7 | growth at 10 µM [21]: 88.9%; growth at 10 µM [22]: 90.8%; growth at 10 µM [23]: 87.9%; growth at 10 µM [24]: 89.9%; growth at 10 µM [25]: 84.9%; growth at 10 µM [26]: 15.7%; growth at 10 µM [27]: 83.1%; growth at 10 µM [28]: 74%; growth at 10 µM [29]: 78.3%; growth at 10 µM [30]: 89%; growth at 10 µM [31]: 82.3%; growth at 10 µM [32]: 44.5%; growth at 10 µM [33]: 80.1%; pIC50 [34]: < 4.30; pIC50 [35]: < 4.70; pIC50 [36]: < 4.70
4 | CC(C)=CCC[C@H](C)c1ccc(C)c(CO)c1O | 93.5 | 104 | 89.1 | 102 | 76.7 | 91.3 | 92.3 | 112 | 80.1 | 97.1 | < 4.70 | 90.7 | 107 | 90.4 | 85.1 | 134 | 102 | 108 | 103 | 98.8 | growth at 10 µM [21]: 98.4%; growth at 10 µM [22]: 101%; growth at 10 µM [23]: 103%; growth at 10 µM [24]: 92.1%; growth at 10 µM [25]: 118%; growth at 10 µM [26]: 102%; growth at 10 µM [27]: 108%; growth at 10 µM [28]: 92.9%; growth at 10 µM [29]: 112%; growth at 10 µM [30]: 99.8%; growth at 10 µM [31]: 103%; growth at 10 µM [32]: 101%; growth at 10 µM [33]: 94.2%; pIC50 [34]: 4.65; pIC50 [35]: < 4.70; pIC50 [36]: 4.91
5 | CC(C)=CCC[C@H](C)c1ccc(C)c(CNCC2CCNCC2)c1O | 70 | 71 | 85 | 78.2 | 64.3 | 78 | 65 | 71.8 | 81.2 | 84 | < 4.70 | 88 | 83.4 | 13.2 | 73 | 91 | 102 | 13.9 | 46.7 | 57 | growth at 10 µM [21]: 84%; growth at 10 µM [22]: 84%; growth at 10 µM [23]: 67%; growth at 10 µM [24]: 84%; growth at 10 µM [25]: 86%; growth at 10 µM [26]: -3.94%; growth at 10 µM [27]: 54.7%; growth at 10 µM [28]: 84%; growth at 10 µM [29]: 72%; growth at 10 µM [30]: 84%; growth at 10 µM [31]: 67%; growth at 10 µM [32]: 2.65%; growth at 10 µM [33]: 71.3%; pIC50 [34]: 4.74; pIC50 [35]: < 4.70; pIC50 [36]: < 4.70
